From US10328011B2, “Use of proline containing dipeptides” (DSM IP ASSETS B.V., priority 2015, dated 2019) come the findings set out here.

Common to all, as to format: cell-based
One assay relates to LOXL2. The assay is described as follows: Gene-expression analysis in normal human dermal fibroblasts: LOXL2. The conditions noted are these: peptide 0.01%, 24 hrs. How it is done: LOXL2: This gene encodes a member of the lysyl oxidase gene family that catalyses the first step in the formation of crosslinks in collagens.
(§1) Normal human dermal fibroblasts at passage 7 from a donor were cultured in DMEM with L-glutamine 2 mM, Penicillin 50 U/ml-Streptomycin 50 ug/ml and 10% FCS in a 5% CO2 atmosphere at 37° C. After equilibration of cell in 1% FCS for 24 hrs the respective peptides H-(beta-Ala)-Pro-Dab-NH-benzyl [CAS 823202-99-9], respectively N-palmitoyl-Gly-His-Lys [147732-56-7]/N-palmitoyl-Gly-Gln-Pro-Arg [221227-C5-0] (2:1) diluted in growth medium to a concentration of 0.01% were added and the cells were incubated for an additional 24 hrs. At the end of incubation cells were washed in PBS and immediately frozen at −80° C. Total RNA was extracted using NucleoSpin RNA Plus kit (Macherey-Nagel) according to supplier's instructions. cDNA was synthesized by reverse transcription of total RNA using Transcriptor Reverse Transcriptase (Roche). PCR was performed on a LightCycler device (Roche Molecular Systems Inc.) according to manufacturer's instructions. Raw data were analyzed using Microsoft Excel.

The subject of another assay is ADAMTS2. Kind of assay: Gene-expression analysis in normal human dermal fibroblasts: ADAMTS2. The conditions noted are these: peptide 0.01%, 24 hrs. How it is done: ADAMTS2 is responsible for processing several types of procollagen proteins. Specifically, this enzyme clips a short chain of amino acids off one end of the procollagen. This clipping step is necessary for collagen molecules to function normally and assemble into fibrils outside cells.
as §1

The test system of another assay is PCOLCE. The assay is described as follows: Gene-expression analysis in normal human dermal fibroblasts: PCOLCE. The settings on record: peptide 0.01%, 24 hrs. How it is done:
PCOLCE: This gene encodes a glycoprotein which binds and drives the enzymatic cleavage of type I procollagen upon secretion from the cell, to yield the mature triple helical, highly structured fibrils.
as §1

For the next assay, the system named is PLOD3. The assay is described as follows: Gene-expression analysis in normal human dermal fibroblasts: PLOD3. The conditions noted are these: 24 hrs. The method, then:
PLOD3: The enzyme catalyzes the hydroxylation of lysyl residues in collagen-like peptides. The resultant hydroxylysyl groups are attachment sites for carbohydrates in collagen and thus are critical for the stability of intermolecular crosslinks.
as §1

The substance “H-(beta-Ala)-Pro-Dab-NH-benzyl [H-(β-Ala)-Pro-Dab-NH-benzyl]” returned an LOXL2 gene expression in the assay on LOXL2 of 237%. For the same substance, the ADAMTS2 gene expression in the assay on ADAMTS2 came to 151%. The same substance came in with a PCOLCE gene expression in the assay with PCOLCE of 137%. In the assay with PLOD3 (normal human dermal fibroblasts, peptide 0.01%), this substance registered a PLOD3 gene expression of 299%. In addition, the “upregulation of genes involved in collagen fiber maturation (in words)” value with PLOD3 (summary over PLOD3, LOXL2, PCOLCE, ADAMTS2, fibroblasts, 0.01%) is recorded as “significantly upregulates”.
